SMILES strings stand for the structures.

This experiment concerns parasite. Put plainly: Parasite LDH growth assay (Parasite Assay). The conditions noted are these: Plasmodium falciparum, 72 h, ring stage parasites, 72 hours growth at 37° C., LDH readout of parasite growth. The experiment is classed as cell-based, Plasmodium falciparum. On the procedure: Assessing Antiparasite Potency in a Parasite LDH Growth Assay (Parasite Assay) The parasite stock was maintained at 4% haematocrit in RPMI-Hepes media 30 buffered with sodium bicarbonate and supplemented with 5% heat inactivated human serum and 0.5% albumax. Approximately 42 hours prior to the potency assay being set up, parasites were synchronized with 5% sorbitol to select for ring stage parasites. On the day of assay set up, a blood smear of the parasite culture was Giemsa stained and counted. The parasitemia was 35 adjusted to 0.7% rings and the haematocrit was diluted to 2% in RPMI-Hepes media buffered with sodium bicarbonate and supplemented with 5% heat inactivated human serum and 0.5% albumax. 30 ul of diluted parasites are then added into 10 μl of media+compound in pre-prepared Greiner TC assay plates. Parasite assay plates were placed in gassed humidified boxes in single layer and allowed to incubate at 37° C. for 72 hours. After 72 hours growth, assay plates are sealed with parafilm and frozen flat, in single file at −80° C. overnight. On the following day, assay plates were allowed to thaw at room temperature for 4 hours to which an LDH assay was performed to measure parasite growth.
Turning to `CC[C@]12CCCC(C)c3ccc4c(c3)[C@@H](NC(=O)c3ccc5c(c3)[C@@H](CCO5)N(C(=N)N1)C(=O)C2)[C@H](O)C4` (stereo partly drawn) [Example 1, (1R,5R,15R,16R)-5-ethyl-15-hydroxy-3-imino-9-methyl-23-oxa-2,4,17-triazahexacyclo[17.6.2.22,5.210,13.012,16.022,26]hentriaconta-10,12,19,21,26,28-hexaene-18,31-dione], a half-maximal response (EC50) required 2.7 nM.

With `CC[C@]12CCCCCc3ccc4c(c3)[C@@H](NC(=O)c3ccc5c(c3)[C@@H](CCO5)N(C(=N)N1)C(=O)C2)[C@H](O)C4` [Example 2, (1R,5R,16R,17R)-5-ethyl-16-hydroxy-3-imino-24-oxa-2,4,18-triazahexacyclo[18.6.2.22,5.211,14.013,17.023,27]dotriaconta-11,13,20,22,27,29-hexaene-19,32-dione], the response was half-maximal at 11 nM (EC50).

For `CC[C@]12CCCCc3ccc4c(c3)[C@H](CC(C)(C)O4)NC(=O)c3ccc4c(c3)[C@@H](CCO4)N(C(=N)N1)C(=O)C2` [Example 3A, (1R,5R,17S)-5-ethyl-3-imino-15,15-dimethyl-14,24-dioxa-2,4,18-triazahexacyclo[18.6.2.22,5.210,13.012,17.023,27]dotriaconta-10,12,20,22,27,29-hexaene-19,32-dione], a half-maximal response (EC50) required 0.2 nM.

For the molecule `CC[C@@]12CCCCc3ccc4c(c3)[C@H](CC(C)(C)O4)NC(=O)c3ccc4c(c3)[C@@H](CCO4)N(C(=N)N1)C(=O)C2` [Example 3B, (1R,5S,17S)-5-ethyl-3-imino-15,15-dimethyl-14,24-dioxa-2,4,18-triazahexacyclo[18. 6.2.22,5.210,13.012, 17.023,27] dotriaconta-10,12,20,22,27,29-hexaene-19,32-dione], the midpoint of the response, the EC50, lay at 270 nM.

As to `CC[C@]12CCCCOc3ccc4c(c3)[C@H](CC(C)(C)O4)NC(=O)c3ccc4c(c3)[C@@H](CCO4)N(C(=N)N1)C(=O)C2` [Example 4, (1R,5R,18S)-5-ethyl-3-imino-16,16-dimethyl-10,15,25-trioxa-2,4,19-triazahexacyclo[19.6.2.22,5.211,14.013,18.024,28]tritriaconta-11,13,21,23,28,30-hexaene-20,33-dione], the EC50 – broadly, the concentration needed to bring the measured effect to its halfway point – was found to be 2 nM.

`CC[C@]12CCC/C=C/c3ccc4c(c3)[C@@H](NC(=O)c3ccc5c(c3)[C@@H](CCO5)N(C(=N)N1)C(=O)C2)[C@H](O)C4` [Example 5, (1R,5R,9E,16R, 17R)-5-ethyl-16-hydroxy-3-imino-24-oxa-2,4,18-triazahexacyclo[18. 6.2.22,5.211,14.013, 17.023,27] dotriaconta-9,11,13,20,22,27, 29-heptaene-19,32-dione] gave an EC50 of 0.9 nM.

Molecule `CC[C@]12CCC/C=C\c3ccc4c(c3)[C@@H](NC(=O)c3ccc5c(c3)[C@@H](CCO5)N(C(=N)N1)C(=O)C2)[C@H](O)C4` [Example 6, (1R,5R,9Z,16R, 17R)-5-ethyl-16-hydroxy-3-imino-24-oxa-2,4,18-triazahexacyclo[18. 6.2.22,5.211,14.013, 17.023,27] dotriaconta-9,11,13,20,22,27, 29-heptaene-19,32-dione] came in with an EC50 of 2.8 nM.

In turn, `CC[C@]12CCC/C=C/c3ccc4c(c3)[C@H](CC(C)(C)O4)NC(=O)c3ccc4c(c3)[C@@H](CCO4)N(C(=N)N1)C(=O)C2` [Example 7, (1R,5R,9E,18S)-5-ethyl-3-imino-16,16-dimethyl-15,25-dioxa-2,4,19-triazahexacyclo[19. 6.2.22,5.211,14.013, 18.024,28] tritriaconta-9,11,13,21,23,28, 30-heptaene-20,33-dione] displayed an EC50 of 0.9 nM.

`CC[C@]12CCCCCc3ccc4c(c3)[C@H](CC(C)(C)O4)NC(=O)c3ccc4c(c3)[C@@H](CCO4)N(C(=N)N1)C(=O)C2` [Example 8, (1R,5R,18S)-5-ethyl-3-imino-16,16-dimethyl-15,25-dioxa-2,4,19-triazahexacyclo[19. 6.2.22,5.211,14.013, 18.024,28] tritriaconta-11,13,21,23,28,30-hexaene-20,33-dione] displayed an EC50 of 1.1 nM.

As to `CC[C@@]12CCCCCc3ccc4c(c3)[C@H](CC(C)(C)O4)NC(=O)c3ccc4c(c3)[C@@H](CCO4)N(C(=N)N1)C(=O)C2` [Example 9, (1R,5S,18S)-5-ethyl-3-imino-16,16-dimethyl-15,25-dioxa-2,4,19-triazahexacyclo[19. 6.2.22,5.211,14.013, 18.024,28] tritriaconta-11,13,21,23,28,30-hexaene-20,33-dione], the EC50 is 76.5 nM.

The molecule `CC[C@]12CCC/C=C\Cc3ccc4c(c3)[C@H](CC(C)(C)O4)NC(=O)c3ccc4c(c3)[C@@H](CCO4)N(C(=N)N1)C(=O)C2` [Example 10, (1R,5R,9Z,19S)-5-ethyl-3-imino-17,17-dimethyl-16,26-dioxa-2,4,20-triazahexacyclo[20. 6.2.22,5.212,15.014, 19.025,29] tetratriaconta-9,12,14,22(30),23, 25(29),31-heptaene-21,34-dione] yielded an EC50 of 2.5 nM.

Consider `CC[C@]12CCC/C=C/Cc3ccc4c(c3)OC(C)(C)C[C@@H]4NC(=O)c3ccc4c(c3)[C@@H](CCO4)N(C(=N)N1)C(=O)C2` [Example 11, (1R,5R,9E,20S)-5-ethyl-3-imino-18,18-dimethyl-17,27-dioxa-2,4,21-triazahexacyclo[21. 6.2.22,5.112,16.015, 20.026,30] tetratriaconta-9,12(32),13,15,23, 25,30-heptaene-22,34-dione], for which the EC50 amounted to 4.6 nM.

On to `CC[C@]12CCCCCCc3ccc4c(c3)[C@H](CC(C)(C)O4)NC(=O)c3ccc4c(c3)[C@@H](CCO4)N(C(=N)N1)C(=O)C2` [Example 12, (1R,5R,19S)-5-ethyl-3-imino-17,17-dimethyl-16,26-dioxa-2,4,20-triazahexacyclo[20. 6.2.22,5.212,15.014, 19.025,29] tetratriaconta-12,14,22(30),23, 25(29),31-hexaene-21,34-dione], for which the EC50 amounted to 1 nM.

`CC[C@@]12CCCCCCc3ccc4c(c3)OC(C)(C)C[C@@H]4NC(=O)c3ccc4c(c3)[C@@H](CCO4)N(C(=N)N1)C(=O)C2` [Example 13, (1R,5S,20S)-5-ethyl-3-imino-18,18-dimethyl-17,27-dioxa-2,4,21-triazahexacyclo[21. 6.2.22,5.112,16.015, 20.026,30] tetratriaconta-12(32),13,15,23,25, 30-hexaene-22,34-dione] yielded an EC50 of 22 nM.

`CC[C@]12CCCCCCc3ccc4c(c3)OC(C)(C)C[C@@H]4NC(=O)c3ccc4c(c3)[C@@H](CCO4)N(C(=N)N1)C(=O)C2` [Example 14, (1R,5R,20S)-5-ethyl-3-imino-18,18-dimethyl-17,27-dioxa-2,4,21-triazahexacyclo[21. 6.2.22,5.112,16.015, 20.026,30] tetratriaconta-12(32),13,15,23, 25,30-hexaene-22,34-dione] came in with an EC50 of 34 nM.

The molecule `CCC12CCCCCc3ccc4c(c3)[C@H](CC(C)(C)O4)NC(=O)c3ccc4c(c3)[C@@H]([C@H](COC)CO4)N(C(=N)N1)C(=O)C2` (stereo partly drawn) [Example 16A, (1R,18S,27R)-5-ethyl-3-imino-27-(methoxymethyl)-16,16-dimethyl-15,25-dioxa-2,4,19-triazahexacyclo[19. 6.2.22,5.211,14.013, 18.024,28] tritriaconta-11,13,21,23,28,30-hexaene-20,33-dione] yielded an EC50 of 61.5 nM.
